# Activity calls are given as the source filed them. The calls are words filed in the database; no cut-off is given here.
# Key:
# Aequorea victoria [1] = experiment: Binding affinity to Aequorea victoria GFP mRNA (1-26) assessed as melting temperature
# Aequorea victoria [2] = experiment: Binding affinity to Aequorea victoria GFP mRNA (1-26) assessed as change in melting temperature
# Aequorea victoria [3] = experiment: Blockade of Aequorea victoria GFP mRNA (1-26) translation activity assessed as reduction in protein expression level at a drug:mRNA molar ratio of 2:1 measured prior to UV irradiation by gel electrophoresis; parameters: scale not given: the % may be the effect or the level left
# Aequorea victoria [4] = experiment: Blockade of Aequorea victoria GFP mRNA (1-26) translation activity assessed as reduction in protein expression level at a drug:mRNA molar ratio of 2:1 measured after UV irradiation by gel electrophoresis
# Aequorea victoria [5] = experiment: Blockade of Aequorea victoria GFP mRNA (1-26) translation activity assessed as reduction in protein expression level at a drug:mRNA molar ratio of 12:1 measured prior to UV irradiation by gel electrophoresis; parameters: scale not given: the % may be the effect or the level left
# Aequorea victoria [6] = experiment: Blockade of Aequorea victoria GFP mRNA (1-26) translation activity assessed as reduction in protein expression level measured after UV irradiation at a drug:mRNA molar ratio of 12:1 measured after UV irradiation by gel electrophoresis
Tm (Aequorea victoria [1]),ΔTm (Aequorea victoria [2]),Activity (Aequorea victoria [3]),Activity (Aequorea victoria [4]),Activity (Aequorea victoria [5]),Activity (Aequorea victoria [6]),SMILES
72.4 °C,20 °C,100%,Active,,,CC(OC(=O)NCCCCCCOC[C@H]1O[C@@H](n2ccc(N)nc2=O)[C@H](O)[C@@H]1OP(=O)(O)OC[C@H]1O[C@@H](n2ccc(=O)[nH]c2=O)[C@H](O)[C@@H]1OP(=O)(O)OC[C@H]1O[C@@H](n2cnc3c(N)ncnc32)[C@H](O)[C@@H]1OP(=O)(O)OC[C@H]1O[C@@H](n2cnc3c(=O)[nH]c(N)nc32)[C@H](O)[C@@H]1OP(=O)(O)OC[C@H]1O[C@@H](n2ccc(N)nc2=O)[C@H](O)[C@@H]1OP(=O)(O)OC[C@H]1O[C@@H](n2ccc(N)nc2=O)[C@H](O)[C@@H]1OP(=O)(O)OC[C@H]1O[C@@H](n2cnc3c(N)ncnc32)[C@H](O)[C@@H]1OP(=O)(O)OC[C@H]1O[C@@H](n2cnc3c(=O)[nH]c(N)nc32)[C@H](O)[C@@H]1OC[C@H]1O[C@@H](n2ccc(N)nc2=O)[C@H](O)[C@@H]1OC[C@H]1O[C@@H](n2ccc(=O)[nH]c2=O)[C@H](O)[C@@H]1O)c1cc(CN2C(=O)CC(SCCCO[C@H]3[C@@H](O)[C@H](n4ccc(=O)[nH]c4=O)O[C@@H]3COP(=O)(O)O[C@H]3[C@@H](O)[C@H](n4cnc5c(=O)[nH]c(N)nc54)O[C@@H]3COP(=O)(O)O[C@H]3[C@@H](O)[C@H](n4ccc(=O)[nH]c4=O)O[C@@H]3COP(=O)(O)O[C@H]3[C@@H](O)[C@H](n4cnc5c(=O)[nH]c(N)nc54)O[C@@H]3COP(=O)(O)O[C@H]3[C@@H](O)[C@H](n4cnc5c(=O)[nH]c(N)nc54)O[C@@H]3COP(=O)(O)O[C@H]3[C@@H](O)[C@H](n4ccc(=O)[nH]c4=O)O[C@@H]3COP(=O)(O)O[C@H]3[C@@H](O)[C@H](n4cnc5c(N)ncnc54)O[C@@H]3COP(=O)(O)O[C@H]3[C@@H](O)[C@H](n4ccc(N)nc4=O)O[C@@H]3CO[C@H]3[C@@H](O)[C@H](n4ccc(N)nc4=O)O[C@@H]3CO[C@H]3[C@@H](O)[C@H](n4cnc5c(=O)[nH]c(N)nc54)O[C@@H]3CO)C2=O)ccc1[N+](=O)[O-] (some centres not stated)
62.2 °C,32 °C,,,10%,Active,CC(OC(=O)NCCCCCCOC[C@H]1O[C@@H](n2ccc(N)nc2=O)[C@H](O)[C@@H]1OP(=O)(O)OC[C@H]1O[C@@H](n2ccc(=O)[nH]c2=O)[C@H](O)[C@@H]1OP(=O)(O)OC[C@H]1O[C@@H](n2cnc3c(N)ncnc32)[C@H](O)[C@@H]1OP(=O)(O)OC[C@H]1O[C@@H](n2cnc3c(=O)[nH]c(N)nc32)[C@H](O)[C@@H]1OP(=O)(O)OC[C@H]1O[C@@H](n2ccc(N)nc2=O)[C@H](O)[C@@H]1OP(=O)(O)OC[C@H]1O[C@@H](n2ccc(N)nc2=O)[C@H](O)[C@@H]1OP(=O)(O)OC[C@H]1O[C@@H](n2cnc3c(N)ncnc32)[C@H](O)[C@@H]1OP(=O)(O)OC[C@H]1O[C@@H](n2cnc3c(=O)[nH]c(N)nc32)[C@H](O)[C@@H]1OC[C@H]1O[C@@H](n2ccc(N)nc2=O)[C@H](O)[C@@H]1OC[C@H]1O[C@@H](n2ccc(=O)[nH]c2=O)[C@H](O)[C@@H]1O)c1cc(CN2C(=O)CC(SCCCO[C@H]3[C@@H](O)[C@H](n4ccc(=O)[nH]c4=O)O[C@@H]3COP(=O)(O)O[C@H]3[C@@H](O)[C@H](n4cnc5c(=O)[nH]c(N)nc54)O[C@@H]3COP(=O)(O)O[C@H]3[C@@H](O)[C@H](n4ccc(=O)[nH]c4=O)O[C@@H]3COP(=O)(O)O[C@H]3[C@@H](O)[C@H](n4cnc5c(=O)[nH]c(N)nc54)O[C@@H]3COP(=O)(O)O[C@H]3[C@@H](O)[C@H](n4cnc5c(=O)[nH]c(N)nc54)O[C@@H]3COP(=O)(O)O[C@H]3[C@@H](O)[C@H](n4ccc(=O)[nH]c4=O)O[C@@H]3COP(=O)(O)O[C@H]3[C@@H](O)[C@H](n4cnc5c(N)ncnc54)O[C@@H]3COP(=O)(O)O[C@H]3[C@@H](O)[C@H](n4ccc(N)nc4=O)O[C@@H]3CO)C2=O)ccc1[N+](=O)[O-] (some centres not stated)
81.2 °C,24 °C,100%,Active,,,CC(OC(=O)NCCCCCCOC[C@H]1O[C@@H](n2ccc(N)nc2=O)[C@H](O)[C@@H]1OP(=O)(O)OC[C@H]1O[C@@H](n2ccc(N)nc2=O)[C@H](O)[C@@H]1OP(=O)(O)OC[C@H]1O[C@@H](n2cnc3c(N)ncnc32)[C@H](O)[C@@H]1OP(=O)(O)OC[C@H]1O[C@@H](n2cnc3c(=O)[nH]c(N)nc32)[C@H](O)[C@@H]1OP(=O)(O)OC[C@H]1O[C@@H](n2ccc(N)nc2=O)[C@H](O)[C@@H]1OP(=O)(O)OC[C@H]1O[C@@H](n2ccc(=O)[nH]c2=O)[C@H](O)[C@@H]1OP(=O)(O)OC[C@H]1O[C@@H](n2ccc(=O)[nH]c2=O)[C@H](O)[C@@H]1OP(=O)(O)OC[C@H]1O[C@@H](n2cnc3c(=O)[nH]c(N)nc32)[C@H](O)[C@@H]1OP(=O)(O)OC[C@H]1O[C@@H](n2cnc3c(=O)[nH]c(=O)[nH]c32)[C@H](O)[C@@H]1OP(=O)(O)OC[C@H]1O[C@@H](n2cnc3c(=O)[nH]c(=O)[nH]c32)[C@H](O)[C@@H]1OP(=O)(O)OC[C@H]1O[C@@H](n2ccc(=O)[nH]c2=O)[C@H](O)[C@@H]1OP(=O)(O)OC[C@H]1O[C@@H](n2ccc(N)nc2=O)[C@H](O)[C@@H]1O)c1cc(CN2C(=O)CC(SCCCO[C@H]3[C@@H](O)[C@H](n4cnc5c(=O)[nH]c(N)nc54)O[C@@H]3COP(=O)(O)O[C@H]3[C@@H](O)[C@H](n4cnc5c(N)ncnc54)O[C@@H]3COP(=O)(O)O[C@H]3[C@@H](O)[C@H](n4ccc(=O)[nH]c4=O)O[C@@H]3COP(=O)(O)O[C@H]3[C@@H](O)[C@H](n4ccc(N)nc4=O)O[C@@H]3CO[C@@H]3[C@H](O)[C@@H](COP(=O)(O)O[C@H]4[C@@H](O)[C@H](n5cnc6c(=O)[nH]c(N)nc65)O[C@@H]4COP(=O)(O)O[C@H]4[C@@H](O)[C@H](n5ccc(=O)[nH]c5=O)O[C@@H]4COP(=O)(O)O[C@H]4[C@@H](O)[C@H](n5cnc6c(=O)[nH]c(N)nc65)O[C@@H]4COP(=O)(O)O[C@H]4[C@@H](O)[C@H](n5cnc6c(=O)[nH]c(N)nc65)O[C@@H]4COP(=O)(O)O[C@H]4[C@@H](O)[C@H](n5ccc(=O)[nH]c5=O)O[C@@H]4COP(=O)(O)O[C@H]4[C@@H](O)[C@H](n5cnc6c(N)ncnc65)O[C@@H]4COP(=O)(O)O[C@H]4[C@@H](O)[C@H](n5ccc(N)nc5=O)O[C@@H]4CO)O[C@H]3n3ccc(=O)[nH]c3=O)C2=O)ccc1[N+](=O)[O-] (some centres not stated)

# From ChEMBL document CHEMBL1140998, “RNA bandages for photoregulating in vitro protein synthesis” (Bioorg Med Chem Lett, 2008)
